Laboratory results from ChEMBL document CHEMBL5053525, “Synthesis and antiviral effect of phosphamide modified vidarabine for treating HSV 1 infections” (Bioorg Med Chem Lett, 2021).
Active and inactive are the calls of the source. No cut-off for these calls is given here.

Legend:
Human alphaherpesvirus 1 [1] = assay: Antiviral activity against GFP-expressing HSV-1 assessed as reduction in viral growth by fluorescence assay; format: functional, organism-based
Human alphaherpesvirus 1 [2] = assay: Antiviral activity against HSV-1 infected in African green monkey Vero cells assessed as inhibition of viral replication by measuring ICPO level at 10 uM pre-infected with viral particles for 2 hrs followed by compound treatment for 24 hrs by Western blot analysis; format: functional, organism-based
Human alphaherpesvirus 1 [3] = assay: Antiviral activity against HSV-1 infected in human Huh-7 cells assessed as inhibition of viral replication by measuring ICPO level; format: functional, organism-based; details: dose 0.1-1.6 µM
Human alphaherpesvirus 1 [4] = assay: Antiviral activity against HSV-1 infected in human HepG2 cells assessed as inhibition of viral replication by measuring ICPO level at 10 uM pre-infected with viral particles for 2 hrs followed by compound treatment for 24 hrs by Western blot analysis; format: functional, organism-based
Huh-7 = assay: Cytotoxicity against human Huh-7 cells assessed as effect on cell viability at 10 uM measured by MTT asay; format: cell-based; details: huh-7, 10 µM
Human alphaherpesvirus 1 [5] = assay: Antiviral activity against HSV-1 infected in human Huh-7 cells assessed as inhibition of viral replication by measuring ICPO level at 10 uM pre-infected with viral particles for 2 hrs followed by compound treatment for 24 hrs by Western blot analysis; format: functional, organism-based
Human alphaherpesvirus 1 [6] = assay: Antiviral activity against HSV-1 infected in human Huh-7 cells assessed as reduction in plaque forming units at 1 uM measured after 48 hrs by virus titre method; format: functional
Human alphaherpesvirus 1 [7] = assay: Antiviral activity against HSV-1 infected in human Huh-7 cells assessed as reduction in plaque forming units at 1 uM measured after 48 hrs by virus titre method relative to NTC; format: functional

In the case of `CC(C)OC(=O)[C@H](Cc1ccccc1)N[P@](=O)(OC[C@H]1O[C@@H](n2cnc3c(N)ncnc32)[C@@H](O)[C@@H]1O)Oc1ccccc1`, the EC50 (Human alphaherpesvirus 1 [1]) is reported as 1.06 µM, the inhibition (Human alphaherpesvirus 1 [2]) is reported as “inactive” and the inhibition (Human alphaherpesvirus 1 [3]) is reported as “Dose-dependent effect”. The inhibition (Human alphaherpesvirus 1 [4]) was “Active”, the Activity (Huh-7) was “Non-Toxic” and the inhibition (Human alphaherpesvirus 1 [5]) was “Active”.
In the case of `CSCC[C@H](N[P@](=O)(OC[C@H]1O[C@@H](n2cnc3c(N)ncnc32)[C@@H](O)[C@@H]1O)Oc1ccccc1)C(=O)OC(C)C`, the inhibition (Human alphaherpesvirus 1 [4]) is reported as “Active” and the inhibition (Human alphaherpesvirus 1 [5]) is reported as “Active”.
`Nc1nc2c(ncn2COC(CO)CO)c(=O)[nH]1` [GANCICLOVIR] was tested, and the EC50 (Human alphaherpesvirus 1 [1]) was less than 0.1 µM.
For `NC(=O)c1ncn([C@@H]2O[C@H](CO)[C@@H](O)[C@H]2O)n1` [RIBAVIRIN], the Activity (Human alphaherpesvirus 1 [6]) was 100 PFU/ml.
In the case of `COC(=O)[C@@H](NP(=O)(OC[C@H]1O[C@@H](n2cnc3c(N)ncnc32)[C@@H](O)[C@@H]1O)Oc1ccccc1)C(C)C` (stereo partly specified), the inhibition (Human alphaherpesvirus 1 [4]) is reported as “Active” and the inhibition (Human alphaherpesvirus 1 [5]) is reported as “Active”.
`CC(C)OC(=O)[C@H](C)N[P@](=O)(OC[C@H]1O[C@@H](n2cnc3c(N)ncnc32)[C@@H](O)[C@@H]1O)Oc1ccccc1` was tested, and the inhibition (Human alphaherpesvirus 1 [4]) was “Active” and the inhibition (Human alphaherpesvirus 1 [5]) was “Active”.
In the case of `COC(=O)[C@H](NP(=O)(OC[C@H]1O[C@@H](n2cnc3c(N)ncnc32)[C@@H](O)[C@@H]1O)Oc1ccccc1)C(C)C` (stereo partly specified), the inhibition (Human alphaherpesvirus 1 [4]) is reported as “Active” and the inhibition (Human alphaherpesvirus 1 [5]) is reported as “Active”.
`CC(C)C[C@H](NP(=O)(OC[C@H]1O[C@@H](n2cnc3c(N)ncnc32)[C@@H](O)[C@@H]1O)Oc1ccccc1)C(=O)OC(C)C` (stereo partly specified) was tested, and the EC50 (Human alphaherpesvirus 1 [1]) was 1.18 µM, the inhibition (Human alphaherpesvirus 1 [2]) was “inactive” and the inhibition (Human alphaherpesvirus 1 [3]) was “Dose-dependent effect”. The inhibition (Human alphaherpesvirus 1 [4]) was “Active”, the Activity (Huh-7) was “Non-Toxic” and the inhibition (Human alphaherpesvirus 1 [5]) was “Active”.
`CC(C)OC(=O)CN[P@](=O)(OC[C@H]1O[C@@H](n2cnc3c(N)ncnc32)[C@@H](O)[C@@H]1O)Oc1ccccc1` was tested, and the inhibition (Human alphaherpesvirus 1 [4]) was “Active” and the inhibition (Human alphaherpesvirus 1 [5]) was “Active”.
`CC(C)OC(=O)[C@H](Cc1c[nH]c2ccccc12)N[P@](=O)(OC[C@H]1O[C@@H](n2cnc3c(N)ncnc32)[C@@H](O)[C@@H]1O)Oc1ccccc1` was tested, and the inhibition (Human alphaherpesvirus 1 [4]) was “Active” and the inhibition (Human alphaherpesvirus 1 [5]) was “Active”.
For `CC(C)OC(=O)[C@@H](C)N[P@](=O)(OC[C@H]1O[C@@H](n2cnc3c(N)ncnc32)[C@@H](O)[C@@H]1O)Oc1ccccc1`, the inhibition (Human alphaherpesvirus 1 [4]) was “Active” and the inhibition (Human alphaherpesvirus 1 [5]) was “Active”.
In the case of `CSCC[C@H](NP(=O)(OC[C@H]1O[C@@H](n2cnc3c(N)ncnc32)[C@@H](O)[C@@H]1O)Oc1ccccc1)C(=O)OC(C)C` (stereo partly specified), the inhibition (Human alphaherpesvirus 1 [4]) is reported as “Active” and the inhibition (Human alphaherpesvirus 1 [5]) is reported as “Active”.
For `CC(C)OC(=O)[C@@H](N[P@](=O)(OC[C@H]1O[C@@H](n2cnc3c(N)ncnc32)[C@@H](O)[C@@H]1O)Oc1ccccc1)C(C)C`, the inhibition (Human alphaherpesvirus 1 [4]) was “Active” and the inhibition (Human alphaherpesvirus 1 [5]) was “Active”.
For `CC(C)OC(=O)[C@H](C)NP(=O)(OC[C@H]1O[C@@H](n2cnc3c(N)ncnc32)[C@@H](O)[C@@H]1O)Oc1ccccc1` (stereo partly specified), the inhibition (Human alphaherpesvirus 1 [4]) was “Active” and the inhibition (Human alphaherpesvirus 1 [5]) was “Active”.
For `CCCCCOC(=O)Nc1ncnc2c1ncn2[C@@H]1O[C@H](CO[P@@](=O)(N[C@@H](C)C(=O)OC(C)C)Oc2ccccc2)[C@@H](O)[C@@H]1O`, the inhibition (Human alphaherpesvirus 1 [4]) was “Active” and the inhibition (Human alphaherpesvirus 1 [5]) was “Active”.
With `CC(C)C[C@H](N[P@](=O)(OC[C@H]1O[C@@H](n2cnc3c(N)ncnc32)[C@@H](O)[C@@H]1O)Oc1ccccc1)C(=O)OC(C)C` the “fold change (FC)” value (Human alphaherpesvirus 1 [7]) was 1000, the EC50 (Human alphaherpesvirus 1 [1]) was 0.526 µM and the inhibition (Human alphaherpesvirus 1 [2]) was “inactive”. The inhibition (Human alphaherpesvirus 1 [3]) was “Dose-dependent effect”, the inhibition (Human alphaherpesvirus 1 [4]) was “Active” and the Activity (Human alphaherpesvirus 1 [6]) was “inactive”. The Activity (Huh-7) was “Non-Toxic” and the inhibition (Human alphaherpesvirus 1 [5]) was “Active”.
`CC(C)OC(=O)[C@@H](NP(=O)(OC[C@H]1O[C@@H](n2cnc3c(N)ncnc32)[C@@H](O)[C@@H]1O)Oc1ccccc1)C(C)C` (stereo partly specified) was tested, and the inhibition (Human alphaherpesvirus 1 [4]) was “Active” and the inhibition (Human alphaherpesvirus 1 [5]) was “Active”.
